From patent US20260240880A1, “AGENT FOR AMELIORATING OR TREATING DEMENTIA, PRIMARILY ALZHEIMER'S DEMENTIA” (HOMO C[…] AND DEVELOPMENT INSTITUTE, priority 2023, published 2026)
Entries after “also recorded” stand apart in the source; their conditions may differ.

What was measured:
[1] = Body weight measurement once a week during 24 weeks of daily administration; assay type: in vivo, mouse; design: Weight change / Weight change (average): unit not given here; conditions: APPosk mice; for Weight loss after 24 weeks of daily administration: i.p. once daily, 0.9 or 1.8 mg/kg; for Weight change: range
Description: (§1) Sixty-eight APPosk (SPF) male mice were produced according to the method described in Tomiyama T., Nagata T., Shimada H., Teraoka R., Fukushima A., Kanemitsu H., Takuma H., Kuwano R., Imagawa M., Ataka S., Wada Y., Yoshioka E., Nishizaki T., Watanabe Y., Mori H. A new amyloid β variant favoring oligomerization in Alzheimer's-type dementia. Ann. Neurol. 63, 377-387 (2008) at BioSafety Research Center Inc. (BSRC), which has a track record in producing model mice, and were raised until 24 weeks of age. These mice were then delivered to New Drug Research Center, Inc. and acclimatized until the preliminary breeding period. Note that quarantine was carried out from the date of arrival, considered as Day 0, up to Day 7. General observations were made daily, and body weights were measured on Day 1 (the day following the arrival), Day 3, and Day 7 after the arrival. Each individual was placed in a polysulfone cage and kept in an animal breeding room under conditions of a temperature of 22° C.±3° C., a humidity of 50%±20%, and a 12-hour light/dark cycle.
(§2) Of the 16 wild-type mice that arrived, 10 with weights close to the average were selected to form the normal group. Sixty-eight APPosk mice were delivered and assigned by stratified continuous randomization to the following groups: Pathological; Pathological+2ccPA (L); Pathological+2ccPA (H); Pathological+2cLPA (L); and Pathological+2cLPA (H). L: Low dose (0.9 mg/kg); H: High dose (1.8 mg/kg)
(§3) The dosing solution was filled into a syringe (disposable syringe) equipped with a 26G needle, and administered intraperitoneally once daily for 168 days (24 weeks). On the day when the Morris water maze test was performed, the dosing solution was administered after the Morris water maze test.
Body weight was measured using an electronic balance once a week. Each time, the measurement was carried out twice at different times.

[2] = test system: Alzheimer's dementia model mouse (APPosk); assay: Morris water maze test (escape latency); assay type: in vivo; conditions: APPosk mice; for Memory improvement effect in the Morris water maze test: i.p. once daily for 168 days (24 weeks), tested at 48 weeks of age; for Memory effect in the Morris water maze test at low dose: low dose 0.9 mg/kg i.p. once daily for 24 weeks
Description: as §1, §2, §3
When the mice reached 12 months of age (48 weeks of age), the Morris water maze test was performed.
The water maze (diameter: 90 cm; height: 60 cm; water temperature: approximately 22° C.) was made opaque with a white non-toxic paint (skim milk) and divided into four virtual quadrants (east, west, north, and south). A circular platform having a diameter of 8 cm was submerged approximately 1 cm below the water surface and placed near the center of the north quadrant. Black markers were placed on the walls of the water maze as extramaze cues.
The time it took to reach the platform placed in the water maze (escape latency) was measured over 4 days. Each animal underwent five consecutive trials, with an interval of approximately 20 seconds between the end and start of each trial.
Each trial began with the mouse being placed in any quadrant except the north quadrant, with its face facing the outer edge of the water maze. A webcam (Logicool HD Webcam C615) and SMART v3.0 (Panlab Harvard Apparatus) were used for measurement and analysis. […]

[3] = test system: tau protein and phosphorylated tau protein; assay: Quantitative determination of tau protein and phosphorylated tau protein (immunostaining of brain sections); assay type: in vivo, mouse; conditions: for Suppression of phosphorylation of tau protein: APPosk mice, low dose; for Phosphorylated tau (Ser396) area/Hippocampus area (average) / Phosphorylated tau (Ser404) area/Hippocampus area (average) / Tau protein area/Hippocampus area (average) / Phosphorylated tau (Ser396) area/Hippocampus area / Phosphorylated tau (Ser404) area/Hippocampus area / Tau protein area/Hippocampus area: APPosk-Tg mice, low dose (L) 0.9 mg/kg; for Phosphorylated tau (Ser396) area/Hippocampus area / Phosphorylated tau (Ser404) area/Hippocampus area / Tau protein area/Hippocampus area: range; for Tau protein area/Hippocampus area: five sections
Description: After exsanguination, 6 of the 10 individuals in each group (with numbers ending in 1 to 6) were perfused with phosphate-buffered saline (PBS) and then perfused again with 4% paraformaldehyde (PFA) to fix the brains, after which the brains were removed. The extracted brains were then infiltrated and fixed using the same fixative solution. The remaining four individuals in each group (with numbers ending in 7 to 10) were perfused whole body with PBS, and then their brains were extracted and frozen using liquid nitrogen.
Serial sections (thickness: 40 μm) of fixed mouse […] were prepared using a cryostat. The sections were incubated overnight with primary antibodies and then for 1 hour with secondary antibodies. Stained images were then captured using a confocal microscope (Carl Zeiss) and quantified using NIH ImageJ. The primary antibodies used were non-phosphorylated tau antibody (Invitrogen), phosphorylated tau (Ser396) antibody (Invitrogen), and phosphorylated tau (Ser404) antibody (Invitrogen), and the secondary antibodies used were biotinylated goat anti-mouse IgG antibody (Vector Lab.) and biotinylated goat anti-rabbit IgG antibody (Vector Lab.). Quantitative determination was carried out using five sections each.
Quantitative determination of tau protein and phosphorylated tau protein in the hippocampus of normal, pathological, pathological+2ccPA (low dose), and pathological+2cLPA (low dose) mice

[4] = In vivo hippocampal microdialysis with LC/MS determination of 2ccPA (blood-brain barrier crossing); design: species or system mouse; conditions: 0.9 mg/kg i.p.; for 2ccPA concentration in microdialysis recovery fluid: hippocampus
Procedure: To confirm that 2ccPA crosses the blood-brain barrier (BBB) and enters the brain, an experiment was conducted at the Kurume Modality Analysis Laboratory of BioSafety Research Center Inc. (BSRC), which has a long track record in microdialysis, and the Institute for Disease Modeling, Kurume University School of Medicine.
2ccPA was administered intraperitoneally to 33-week-old male C57BL/6J-Aged mice (SPF, Jackson Laboratory Japan, Inc.) with a dialysis probe (FX-I-4-02, EICOM) placed in the hippocampus of the mouse brain. After that, the brain microdialysis perfusate was collected at […], 1 hour before administration and every 30 minutes (0.5 to 5.0 hours) after administration, using the in vivo microdialysis method.
The hippocampal guide cannula placement surgery was performed under isoflurane anesthesia, with a guide cannula and a dummy cannula placed at the hippocampal coordinate position (AP=−3.1 mm; ML=+2.7 mm; DV=−3.7 mm). After surgery, Vetorphale was administered subcutaneously for analgesia. Three to five days after the cannula was placed, the cannula was replaced with a dialysis probe under isoflurane inhalation anesthesia, and pre-perfusion (perfusion solution: saline containing 0.15% BSA) was then initiated.
2ccPA administration was performed under isoflurane anesthesia. D-PBS(−) containing 0.1% BSA was added to […], and the mixture was dispersed by ultrasonic treatment, thereby preparing a dosing solution.
The dosing solution was diluted with D-PBS(−) containing 0.1% BSA to a concentration of 0.9 mg/kg/day, and then sonicated individually just immediately administration. The administration route was intraperitoneal administration.
The microdialysis perfusate was collected at 11 time points: 1 hour before administration and 0.5, 1.0, 1.5, 2.0, 2.5, 3.0, 3.5, 4.0, 4.5, and 5.0 hours after administration, and each was collected into ice-cooled siliconized tubes.
Five mice in each test group underwent hippocampal cannula placement surgery, replacement with a dialysis probe, administration of the test substance, and collection of the microdialysis perfusate. The collected solution was added to an ice-cold acid-methanol solution (pH 4), stirred, and then promptly frozen in liquid nitrogen and stored at −80° C.
The concentration of 2ccPA in the perfusate collected by microdialysis from mice administered with 2ccPA was measured using LC/MS. The conditions are as follows: Shimizu Y., Fukasawa K., Yamamoto S., Shibike Y., Tsukahara R., Ishikawa M., Iwasa K., Yoshikawa K., Gotoh M., Murakami-Murofushi K. Evaluation of the pharmacokinetics of 2-carba-cyclic phosphatidic acid by liquid chromatography-triple quadrupole mass spectrometry
The standard solution for the calibration curve was prepared by adding ethanol to the standard substance, 2ccPA, dissolving it, and then mixing it with the blank matrix. The internal standard solution (IStd) was prepared by adding ultrapure water to the internal standard substance (ranitidine hydrochloride), dissolving it, and then diluting it with ultrapure water (10 ng/mL). The measurement specimen (microdialysis perfusate) was prepared by adding an acidic methanol solution (pH 4) in an amount five times the volume of the sample.
The measurement samples (the measurement specimen and the standard solution for the calibration curve) were deproteinized by adding a specimen treatment solution containing the internal standard solution to each sample. After centrifugation, the supernatant was filtered, and the 2ccPA concentration was measured using a Q Exactive Ultimate 3000 system (Thermo Scientific), thereby yielding the following results.

[5] = high dose (H) 1.8 mg/kg i.p. once daily for 24 weeks
[6] = low dose (L) 0.9 mg/kg i.p. once daily for 24 weeks

Row | Compound | Weight loss after 24 weeks of daily administration [1] | Weight change (average) [1, 5] | Weight change (average) [1, 6] | Weight change [1, 5] | Weight change [1, 6] | Memory improvement effect in the Morris water maze test [2] | Suppression of phosphorylation of tau protein [3] | Phosphorylated tau (Ser396) area/Hippocampus area (average) [3] | Phosphorylated tau (Ser404) area/Hippocampus area (average) [3] | Tau protein area/Hippocampus area (average) [3] | Phosphorylated tau (Ser396) area/Hippocampus area [3] | Phosphorylated tau (Ser404) area/Hippocampus area [3] | Tau protein area/Hippocampus area [3] | also measured
1 | CCCCCCCCC=CCCCCCCCC(=O)OCC1COP(=O)(O)C1 (stereo not shown) [2ccPA, oleoyl-2-carba-cPA] | No weight loss was observed | 32.1 | 32.3 | 30.6-32.8 | 31.4-33.6 | significantly improved memory; also recorded: significantly improve memory decline | significantly suppress the phosphorylation of tau protein | (2.3) % | (0.5) % | (17.4) % | 2.0-4.9% | 0.4-1.7% | 7.7-19.5% | Memory effect in the Morris water maze test at low dose ([2]; 0.9 mg/kg): memory maintenance effect comparable to that of the normal group; also recorded: clear effects; 2ccPA concentration in microdialysis recovery fluid ([4]; 0.5 hours after administration): 1.90 ng/mL; 2ccPA concentration in microdialysis recovery fluid ([4]; 1.0 hours after administration): 2.22 ng/mL; 2ccPA concentration in microdialysis recovery fluid ([4]; 1.5 hours after administration): 2.81 ng/mL; 2ccPA concentration in microdialysis recovery fluid ([4]; 2.0 hours after administration): 2.24 ng/mL; 2ccPA concentration in microdialysis recovery fluid ([4]; 2.5 hours after administration): 1.64 ng/mL; 2ccPA concentration in microdialysis recovery fluid ([4]; 3.0 hours after administration): 1.80 ng/mL; 2ccPA concentration in microdialysis recovery fluid ([4]; 3.5 hours after administration): 2.32 ng/mL; 2ccPA concentration in microdialysis recovery fluid ([4]; 4.0 hours after administration): 2.12 ng/mL; 2ccPA concentration in microdialysis recovery fluid ([4]; 4.5 hours after administration): 2.12 ng/mL; 2ccPA concentration in microdialysis recovery fluid ([4]; 5.0 hours after administration): 1.22 ng/mL; Crossing of the blood-brain barrier ([4]; mice, hippocampal microdialysis): passed through the barrier of endothelial cells that line the walls of brain capillaries; 2ccPA concentration in microdialysis recovery fluid ([4]; time 0 (before administration), C57BL/6J-Aged mice): 0 ng/mL
2 | oleoyl-2-carba-LPA [2cLPA] | No weight loss was observed | 30.2 | 32.0 | 29.6-31.9 | 30.8-33.3 | significantly improved memory; also recorded: significantly improve memory decline | significantly suppress the phosphorylation of tau protein | (2.4) % | (1.2) % | (19.0) % | 0.5-4.7% | 0.9-1.8% | 10.6-36.2% | Memory effect in the Morris water maze test at low dose [2]: clear effects
